Source: article PMC10714399, “Open Source Antibiotics: Simple Diarylimidazoles Are Potent against Methicillin-Resistant Staphylococcus aureus” (ACS Infectious Diseases, 2023)
Values after ≈ are worked out from the molar mass of the structure shown. Values joined by “and” are separate entries in the source; they are usually repeats but may differ in a detail not shown here. Identical values can stand only once.

test system: not listed separately; test: Aqueous solubility; assay type: physicochemical; conditions: thermodynamic from solid; NEU; read-out: Aqueous Solubility (NEU)
Description: (§1) To guide our initial SAR exploration work, we obtained liver microsomal intrinsic clearance data for 5 of the 18 compounds assayed by CO-ADD (Supporting Information - CDCO Report and Supporting Information - Biology). We then acquired intrinsic clearance (CLint), plasma protein binding (PPB), and solubility data on further compounds throughout the SAR campaign (Supporting Information - Biology, Tables S3 and S4). […] The more polar compounds (lower LogD) had reduced PPB and were more metabolically stable.
(§2) Table S4. ADME and Pharmacokinetics: compounds only appearing in the Supplementary […]
(§3) MRSA Aqueous HLM CLint Rat Hep CLint
(§4) Cmpd MIC Solubility Human PPB (%) (µL/min/mg (µL/min/10x6 LogD7.4
(§5) (µg/mL) (µM) protein) cells)
(§6) ADME and toxicity for compounds were measured according to procedures outlined in the manuscript submitted in parallel to this one;2 other procedures were used for those compounds analysed by Monash University (in vitro ADME) or UCL (toxicity), both described in the main

solubility [µM]	SMILES
38 (≈ 13 µg/mL)	CCN(CC)c1ccc(-c2c(-c3ccccn3)nc3ccccn23)cc1 [OSA_001011]

same assay, conditions: thermodynamic from solid; NEU; read-out: Aqueous Solubility (uM) (NEU)

solubility [µM]	SMILES
0.7 (≈ 0.273 µg/mL)	COc1cccc(-c2nc3ccccn3c2N(CC(C)C)c2ccc(F)cc2)n1 [OSA_001025]

same assay, conditions: thermodynamic from solid; read-out: Aqueous Solubility

solubility [µM]	SMILES
178 (≈ 51.5 µg/mL)	Fc1ccc(-c2c(-c3ccccn3)nc3ccccn23)cc1 [compound 859]

test system: MRC-5SV2 (human lung fibroblast cell line); test: Toxicity against MRC-5SV2; assay type: cell-based; conditions: not given
Procedure: as §6

SMILES	MRC5 TC50 [µg/mL]
Fc1ccc(-c2c(-c3ccccn3)nc3ccccn23)cc1 [compound 859]	3.0
c1ccc(-c2nc3ccccc3n2-c2ccc(N3CCCCC3)cc2)nc1 [compound 994]	7.0
c1ccc(-c2nc3ccccc3n2-c2ccc(N3CCOCC3)cc2)nc1 [compound 995]	22.8
N#CCc1ccc(-n2c(-c3ccccn3)nc3ccccc32)cc1 [compound 996]	19.9

test system: not listed separately; test: Human plasma protein binding (PPB); assay type: in vitro ADME; conditions: human, plasma, human plasma, NEU; read-out: Human PPB (%) (NEU) (converted)
Description: (§7) To guide our initial SAR exploration work, we obtained liver microsomal intrinsic clearance data for 5 of the 18 compounds assayed by CO-ADD (Supporting Information - CDCO Report and Supporting Information - Biology). We then acquired intrinsic clearance (CLint), plasma protein binding (PPB), and solubility data on further compounds throughout the SAR campaign (Supporting Information - Biology, Tables S3 and S4).
as §2, §3, §4, §5, §6

fraction unbound	SMILES
< 0.01	COc1cccc(-c2nc3ccccn3c2N(CC(C)C)c2ccc(F)cc2)n1 [OSA_001025]

same assay, conditions: human, plasma, human plasma, NEU; read-out: Human PPB (NEU) (converted)

fraction unbound	SMILES
0.007	Cc1ccc(Nc2c(-c3ccccn3)nc3ccccn23)cc1 [OSA_000988]
0.004	CCN(CC)c1ccc(-c2c(-c3ccccn3)nc3ccccn23)cc1 [OSA_001011]

test system: Staphylococcus aureus NCTC 13373 (mecA-positive; methicillin-resistant); test: In vitro antibacterial activity, MIC (UCL School of Pharmacy assay), MRSA; assay type: cell-based; conditions: not given
How it was run: (§8)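 Strains: MRSA NCTC 13373, MSSA ATCC 25923, vanA E. faecalis ATCC 51299. Overnight agar growth suspended in PBS, A600 0.1, diluted 1:100 into isosensitest broth; 2-fold compound dilutions 32–0.03 μg/mL, ≤2% DMSO. Vancomycin QC.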

MRSA MIC	SMILES	activity against MRSA, in words
	Fc1ccc(-c2c(-c3ccccn3)nc3ccccn23)cc1 [compound 859]	inactive
16 µg/mL	c1ccc(-c2nc3ccccc3n2-c2ccc(N3CCCCC3)cc2)nc1 [compound 994]	
> 32 µg/mL and 32 µg/mL	c1ccc(-c2nc3ccccc3n2-c2ccc(N3CCOCC3)cc2)nc1 [compound 995]	
> 32 µg/mL and 32 µg/mL	N#CCc1ccc(-n2c(-c3ccccn3)nc3ccccc32)cc1 [compound 996]	

same assay, conditions: Staphylococcus aureus, 16 h; read-out: MRSA MIC

MIC [µg/mL]	SMILES
> 32	Fc1ccc(-c2c(-c3ccccn3)nc3ccccn23)cc1 [compound 859]

same assay, conditions: Staphylococcus aureus, UCL; read-out: MRSA MIC (UCL)

MIC [µg/mL]	SMILES
4 (≈ 13.3 µM)	Cc1ccc(Nc2c(-c3ccccn3)nc3ccccn23)cc1 [OSA_000988]
4 (≈ 11.7 µM)	CCN(CC)c1ccc(-c2c(-c3ccccn3)nc3ccccn23)cc1 [OSA_001011]

same assay, conditions: Staphylococcus aureus; UCL assay; read-out: MRSA MIC (ug/mL) (UCL)

MIC [µg/mL]	SMILES
> 32	COc1cccc(-c2nc3ccccn3c2N(CC(C)C)c2ccc(F)cc2)n1 [OSA_001025]

same assay, conditions: Staphylococcus aureus; read-out: MRSA MIC

MIC [µg/mL]	SMILES
32 (≈ 111 µM)	Fc1ccc(-c2c(-c3ccccn3)nc3ccccn23)cc1 [compound 859]

test system: S. aureus ATCC 25923 (methicillin-susceptible); test: In vitro antibacterial activity, MIC (UCL), MSSA; assay type: cell-based, Staphylococcus aureus; conditions: not given
How it was run: as §8

MSSA MIC [µg/mL]	SMILES
32	c1ccc(-c2nc3ccccc3n2-c2ccc(N3CCCCC3)cc2)nc1 [compound 994]
> 32	c1ccc(-c2nc3ccccc3n2-c2ccc(N3CCOCC3)cc2)nc1 [compound 995]
32	N#CCc1ccc(-n2c(-c3ccccn3)nc3ccccc32)cc1 [compound 996]

same assay, conditions: Staphylococcus aureus; UCL assay; read-out: MSSA MIC (ug/mL) (UCL)

MIC [µg/mL]	SMILES
> 32	COc1cccc(-c2nc3ccccn3c2N(CC(C)C)c2ccc(F)cc2)n1 [OSA_001025]

same assay, conditions: Staphylococcus aureus; read-out: MSSA MIC (UCL)

MIC [µg/mL]	SMILES
4 (≈ 13.3 µM)	Cc1ccc(Nc2c(-c3ccccn3)nc3ccccn23)cc1 [OSA_000988]
4 (≈ 11.7 µM)	CCN(CC)c1ccc(-c2c(-c3ccccn3)nc3ccccn23)cc1 [OSA_001011]

test system: not listed separately; test: LogD7.4 (Chrom Log D); assay type: physicochemical; conditions: chromatographic system (Chrom Log D); pH 7.4, NEU; read-out: LogD 7.4 (NEU)
Description: as §1, §2, §3, §4, §5, §6

chromatographic logD	SMILES
4.3	CCN(CC)c1ccc(-c2c(-c3ccccn3)nc3ccccn23)cc1 [OSA_001011]
> 3.7	COc1cccc(-c2nc3ccccn3c2N(CC(C)C)c2ccc(F)cc2)n1 [OSA_001025]

same assay, conditions: pH 7.4; read-out: LogD7.4

chromatographic logD	SMILES
3	Fc1ccc(-c2c(-c3ccccn3)nc3ccccn23)cc1 [compound 859]

test system: not listed separately; test: Human liver microsome intrinsic clearance; assay type: in vitro ADME; conditions: human liver microsomes, NEU; read-out: HLM CLint (NEU)
Description: as §7, §2, §3, §4, §5, §6

microsomal CLint [µL/min/mg]	SMILES
86.9	Cc1ccc(Nc2c(-c3ccccn3)nc3ccccn23)cc1 [OSA_000988]
159	CCN(CC)c1ccc(-c2c(-c3ccccn3)nc3ccccn23)cc1 [OSA_001011]

same assay, conditions: human liver microsomes, NEU; read-out: HLM CLint (uL/min/mg protein) (NEU)

microsomal CLint [µL/min/mg]	SMILES
86.8	COc1cccc(-c2nc3ccccn3c2N(CC(C)C)c2ccc(F)cc2)n1 [OSA_001025]

same assay, conditions: human, liver microsomes; read-out: HLM CLint

microsomal CLint [µL/min/mg]	SMILES
168	Fc1ccc(-c2c(-c3ccccn3)nc3ccccn23)cc1 [compound 859]

test system: VSE; test: In vitro antibacterial activity, MIC, VSE; assay type: cell-based; conditions: not given

VSE MIC [µg/mL]	SMILES
32	c1ccc(-c2nc3ccccc3n2-c2ccc(N3CCCCC3)cc2)nc1 [compound 994]
> 32	c1ccc(-c2nc3ccccc3n2-c2ccc(N3CCOCC3)cc2)nc1 [compound 995]
> 32	N#CCc1ccc(-n2c(-c3ccccn3)nc3ccccc32)cc1 [compound 996]

same assay, conditions: read-out: VSE MIC (UCL)

MIC [µg/mL]	SMILES
16 (≈ 53.3 µM)	Cc1ccc(Nc2c(-c3ccccn3)nc3ccccn23)cc1 [OSA_000988]

test system: Enterococcus faecalis ATCC 51299 (vanA-positive; vancomycin-resistant); test: In vitro antibacterial activity, MIC (UCL), VRE; assay type: cell-based; conditions: not given
How it was run: as §8

VRE MIC [µg/mL]	SMILES
32	c1ccc(-c2nc3ccccc3n2-c2ccc(N3CCCCC3)cc2)nc1 [compound 994]
> 32	c1ccc(-c2nc3ccccc3n2-c2ccc(N3CCOCC3)cc2)nc1 [compound 995]
> 32	N#CCc1ccc(-n2c(-c3ccccn3)nc3ccccc32)cc1 [compound 996]

same assay, conditions: read-out: VRE MIC

MIC [µg/mL]	SMILES
> 32	Fc1ccc(-c2c(-c3ccccn3)nc3ccccn23)cc1 [compound 859]

same assay, conditions: read-out: VRE MIC (UCL)

MIC [µg/mL]	SMILES
16 (≈ 53.3 µM)	Cc1ccc(Nc2c(-c3ccccn3)nc3ccccn23)cc1 [OSA_000988]

test system: not listed separately; test: Rat hepatocyte intrinsic clearance; assay type: in vitro ADME; conditions: rat hepatocytes, NEU; read-out: Rat Hep CLint (NEU)
Description: as §7, §2, §3, §4, §5, §6

hepatocyte CLint [µL/min/1e6 cells]	SMILES
> 300	Cc1ccc(Nc2c(-c3ccccn3)nc3ccccn23)cc1 [OSA_000988]
192	CCN(CC)c1ccc(-c2c(-c3ccccn3)nc3ccccn23)cc1 [OSA_001011]

same assay, conditions: rat, hepatocytes; Figure 4; read-out: Rat Hep CLint

hepatocyte CLint [µL/min/1e6 cells]	SMILES
49.8	Fc1ccc(-c2c(-c3ccccn3)nc3ccccn23)cc1 [compound 859]

test system: PMM (primary mouse macrophages); test: Toxicity against PMM; assay type: cell-based; conditions: not given
Procedure: as §6

SMILES	PMM TC50 [µg/mL]
Fc1ccc(-c2c(-c3ccccn3)nc3ccccn23)cc1 [compound 859]	9.3
c1ccc(-c2nc3ccccc3n2-c2ccc(N3CCCCC3)cc2)nc1 [compound 994]	5.4
c1ccc(-c2nc3ccccc3n2-c2ccc(N3CCOCC3)cc2)nc1 [compound 995]	22.8
N#CCc1ccc(-n2c(-c3ccccn3)nc3ccccc32)cc1 [compound 996]	19.9
